Measured values reported in patent US6207656A, “Vitamin D analogues and their neuronal effects” (Cephalon, Inc., priority 1998, dated 2001).

Legend:
[1] = target: T1, vitamin D receptor (Gallus gallus, UniProt O42392); assay: Vitamin D receptor binding (displacement of 3H-1α,25(OH)2D3)
T1 sequence (O42392 1-451): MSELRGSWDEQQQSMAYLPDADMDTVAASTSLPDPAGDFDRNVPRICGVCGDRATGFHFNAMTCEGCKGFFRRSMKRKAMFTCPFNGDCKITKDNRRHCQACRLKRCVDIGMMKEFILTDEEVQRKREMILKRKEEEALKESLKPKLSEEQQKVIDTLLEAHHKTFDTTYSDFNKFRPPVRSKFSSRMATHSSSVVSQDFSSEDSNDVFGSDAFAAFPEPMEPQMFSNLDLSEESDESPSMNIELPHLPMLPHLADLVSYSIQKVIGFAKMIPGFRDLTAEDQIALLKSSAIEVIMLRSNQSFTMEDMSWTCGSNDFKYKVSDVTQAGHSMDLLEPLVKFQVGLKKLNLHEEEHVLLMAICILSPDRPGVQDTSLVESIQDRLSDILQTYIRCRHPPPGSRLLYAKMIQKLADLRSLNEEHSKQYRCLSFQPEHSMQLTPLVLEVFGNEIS
Excerpt: Bound and free ^3 H-1α,25(OH2)D3 were then separated on dextran-coated charcoal, samples were centrifuged and the supernatants containing the receptor-bound ^3 H-1α,25(OH2)D3 were counted in a liquid scintillation counter.

[2] = test system: GDNF mRNA; assay: Induction of GDNF mRNA expression in primates; type: in vivo, monkey
Experimental: (§1) Twelve monkeys, ranging in weight from 2.0 Kg to 4.7 Kg, were divided into three groups of 4 animals each: the vehicle group (i.e., control), group dosed with 10 μg/kg/day, and group dosed with 30 μg/kg/clay. The monkeys were dosed orally for 8 days with Compound (A) and were sacrificed 5 hours after the last dosing. Brain regions were dissected and quick frozen. The dissected septi were divided into 3 preparations and two of the three regions of septum were analyzed. Total RNA was prepared and reverse transcribed and gene expression was assessed using polymerase chain reaction by the following procedure.
(§2) Total RNA was prepared by homogenizing sections of tissue in 750 μl RNAzolB™ (Biotecx Laboratories, Houston, Tex.) using a homogenizer (Tekmar, Germany) until fully homogenized and then 250 μl RNAzilB™ was added. RNA was prepared as recommended by the manufacturer (Biotecx Laboratories). […] Concentration of RNA was measured spectrophotometrically and the quality of RNA was visualized on a nondenaturing agarose gel. […]
(§3) An average of 4 PCR assays (two assays for each gene for two cDNA sets) were used in determining the induction of mRNA expression. To assure that PCR assays were within the linear range of the reaction, the linear range for each gene and each cDNA preparation was determined using serial dilutions of cDNAs. […]

[3] = test system: NRT-like mRNA; assay: Induction of NRT-like mRNA expression in rats; type: in vivo, Sprague Dawley rats; settings: 0.3, 1.0 and 3.0 μg/kg oral, 8 days; septum (FIG. 1)
Experimental: (§4) Young adult male Sprague Dawley rats (250-350 g) were administered Compound (A), Compound (E), or a vehicle (80% propylene glycol (human formulation grade; Spectrum Quality Products, Inc., Gardena, Calif., catalog #PR130-55003) and 20% phosphate buffer, pH 9.2) at doses ranging from 0.1 to 5.5 μg/kg daily by oral gavage for eight days. Five hours after the last dose, the animals were sacrificed by decapitation. Each brain was quickly removed and chilled in ice-cold saline. The brain was cut into 2 mm thick coronal sections. Portions of the hippocampus, encompassing the CA1 region, and the medial septum were removed by punching 2 mm^3 sections using a calibrated tissue punch. Punched sections were immediately frozen on dry ice and then stored at -70° C. RNA was prepared from dissected tissue pieces.
(§5) Punches of tissue were homogenized in […] RNAzolB™ (Bioteex Laboratories, Houston, Tex.) using a homogenizer (Tekmar, Germany) until fully homogenized and then 250 μl RNAzilB™ was added. Typically, punches from the corresponding regions of brains of 2 to 3 animals were combined together. RNA was prepared as recommended by the manufacturer (Biotecx Laboratories). […] Concentration of RNA was measured spectrophotometrically and the quality of RNA was visualized on a nondenaturing agarose gel. […]

[4] = Serum calcium in fimbria fornix lesioned rats; type: in vivo, Sprague Dawley rats; settings: oral gavage daily 14 days; data not shown
Experimental: For the fimbria fornix lesion studies, serum calcium was determined by the following method. Sprague Dawley rats (200-300 g) were dosed as described below. Blood was collected from the animals after sacrifice and allowed to clot at room temperature for 3-10 minutes; cells were pelleted in a clinical centrifuge.
The hippocampal ChAT activity is expressed as a percentage of the hippocampal ChAT activity of the […] control side (i.e., lesion control) in FIGS. 4 to 8.

[5] = test system: BDNF mRNA; assay: Induction of BDNF mRNA expression in rats; type: in vivo, Sprague Dawley rats; settings: 0.3, 1.0 and 3.0 μg/kg oral, 8 days; hippocampus (FIG. 1)
Experimental: as §4, §5

[6] = test system: NGF mRNA; assay: Induction of NGF mRNA expression in primates; type: in vivo, monkey
Experimental: as §1, §2, §3

Structure (SMILES): C=C1/C(=C\C=C2/CCC[C@]3(C)[C@@H]([C@@H](C)[C@@H](C#CCC(O)(CC)CC)OCC)CC[C@@H]23)C[C@@H](O)C[C@@H]1O [Compound (A), 1(S),3(R)-dihydroxy-20(R)-(1-ethoxy-5-ethyl-5-hydroxy-2-heptyn-1-yl)-9,10-seco-pregna-5(Z),7(E),10(19)-triene]
- Kd [1]: 0.2 nM
- production of GDNF mRNA ([2]; 10 and 30 μg/kg/day oral, 8 days, primate septum (FIG. 14B)): facilitated the production of NGF mRNA and GDNF mRNA
- dosage of greatest GDNF mRNA production ([2]; 10 vs 30 μg/kg/day oral): greatest at a dosage of 10 μg/kg/day
- production of NRT-like mRNA [3]: facilitated the production of NRT-like mRNA
- serum calcium at doses giving the ChAT results [4]: low calcemic dose levels
- production of BDNF mRNA [5]: facilitated the production of NRT-like mRNA, GDNF mRNA, NT-3 mRNA, and BDNF mRNA
- production of NGF mRNA ([6]; 10 and 30 μg/kg/day oral, 8 days, primate septum (FIG. 14A)): facilitated the production of NGF mRNA
- dosage of greatest NGF mRNA production ([6]; 10 vs 30 μg/kg/day oral): greatest at a dosage of 10 μg/kg/day
